Calls of active or inactive are those of the source. The rule behind the calls is not given here.
Columns and labels:
Mus musculus [1] = test: Antihyperglycemic activity in po dosed diabetic KK-Ay mouse model; assay type: functional, organism-based
Rattus norvegicus [2] = test: Hypoglycemic activity in rat assessed as decrease in plasma glucose at 5 mg/kg, iv; assay type: functional, organism-based; set-up: dose 5 mg/kg
L6 = test: Hypoglycemic activity in rat L6 myotubes assessed as increase in 2-deoxyglucose transport at 25 uM relative to control; assay type: functional
[3] = molecular target: Alpha-glucosidase MAL62 (Saccharomyces cerevisiae) (UniProt P07265); test: Inhibition of yeast alpha-glucosidase assessed as inhibition of p-nitrophenyl-alpha-D-glucopyranoside substrate hydrolysis after 35 mins by spectroscopy
Chain of Alpha-glucosidase MAL62 (Saccharomyces cerevisiae) (P07265 whole entry): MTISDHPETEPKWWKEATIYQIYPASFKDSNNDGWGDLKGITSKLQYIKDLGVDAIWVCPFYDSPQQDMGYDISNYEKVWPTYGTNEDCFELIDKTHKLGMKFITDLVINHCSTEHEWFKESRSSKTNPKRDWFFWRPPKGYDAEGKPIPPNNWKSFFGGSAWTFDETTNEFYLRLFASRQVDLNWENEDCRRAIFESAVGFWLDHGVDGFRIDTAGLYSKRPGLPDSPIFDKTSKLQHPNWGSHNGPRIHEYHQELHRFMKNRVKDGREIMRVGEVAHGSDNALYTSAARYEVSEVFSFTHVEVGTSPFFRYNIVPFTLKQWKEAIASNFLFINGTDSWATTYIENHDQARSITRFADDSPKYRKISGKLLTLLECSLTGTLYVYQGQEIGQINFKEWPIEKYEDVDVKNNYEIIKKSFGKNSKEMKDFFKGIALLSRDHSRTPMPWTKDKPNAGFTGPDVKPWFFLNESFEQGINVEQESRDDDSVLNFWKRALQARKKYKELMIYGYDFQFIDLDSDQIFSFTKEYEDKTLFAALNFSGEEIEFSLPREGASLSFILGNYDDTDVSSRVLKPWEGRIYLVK

Rattus norvegicus [4] = test: Hypoglycemic activity in rat assessed as increase in insulin concentration at 5 mg/kg, iv; assay type: functional, organism-based; set-up: dose 5 mg/kg
Mus musculus [5] = test: Antidiabetic activity in streptozotocin-induced diabetic ICR mouse assessed as change in blood glucose level at 31.2 mg/kg after 1 hr by oral glucose tolerance test (RVb= 10.3 %); assay type: functional
Mus musculus [6] = test: Antidiabetic activity in streptozotocin-induced diabetic ICR mouse assessed as change in blood glucose level at 56.2 mg/kg after 0.5 hr by oral glucose tolerance test (RVb= 51.9 %); assay type: functional
Mus musculus [7] = test: Antihyperglycemic activity in ICR mouse assessed as change in blood glucose level at 56.2 mg/kg at 0.5 hr by oral glucose tolerance test (RVb= 59 %); assay type: functional
Mus musculus [8] = test: Antihyperglycemic activity in ICR mouse assessed as change in blood glucose level at 56.2 mg/kg at 1.5 hrs by oral glucose tolerance test (RVb= 2.5 %); assay type: functional
Mus musculus [9] = test: Antidiabetic activity in streptozotocin-induced diabetic ICR mouse assessed as change in blood glucose level at 31.2 mg/kg after 0.5 hr by oral glucose tolerance test (RVb= 51.9 %); assay type: functional
Mus musculus [10] = test: Antihyperglycemic activity in ICR mouse assessed as change in blood glucose level at 31.2 mg/kg at 1 hr by oral glucose tolerance test (RVb= 1.5 %); assay type: functional
Mus musculus [11] = test: Antidiabetic activity in streptozotocin-induced diabetic ICR mouse assessed as change in blood glucose level at 10 mg/kg after 2 hrs by oral glucose tolerance test (RVb= -12.9 %); assay type: functional
Mus musculus [12] = test: Antidiabetic activity in streptozotocin-induced diabetic ICR mouse assessed as change in blood glucose level at 31.2 mg/kg after 2 hrs by oral glucose tolerance test (RVb= -12.9 %); assay type: functional
Mus musculus [13] = test: Antidiabetic activity in streptozotocin-induced diabetic ICR mouse assessed as change in blood glucose level at 10 mg/kg after 0.5 hr by oral glucose tolerance test (RVb= 51.9 %); assay type: functional
Mus musculus [14] = test: Antidiabetic activity in streptozotocin-induced diabetic ICR mouse assessed as change in blood glucose level at 56.2 mg/kg after 2 hrs by oral glucose tolerance test (RVb= -12.9 %); assay type: functional
Mus musculus [15] = test: Antihyperglycemic activity in ICR mouse assessed as change in blood glucose level at 56.2 mg/kg at 1 hr by oral glucose tolerance test (RVb= 1.5 %); assay type: functional
Mus musculus [16] = test: Antidiabetic activity in streptozotocin-induced diabetic ICR mouse assessed as change in blood glucose level at 10 mg/kg after 1 hr by oral glucose tolerance test (RVb= 10.3 %); assay type: functional
Mus musculus [17] = test: Antihyperglycemic activity in ICR mouse assessed as change in blood glucose level at 31.2 mg/kg after 0.5 hr by oral glucose tolerance test (RVb= 59 %); assay type: functional
Mus musculus [18] = test: Antidiabetic activity in streptozotocin-induced diabetic ICR mouse assessed as change in blood glucose level at 56.2 mg/kg after 1 hr by oral glucose tolerance test (RVb= 10.3 %); assay type: functional
Mus musculus [19] = test: Antihyperglycemic activity in ICR mouse assessed as change in blood glucose level at 31.2 mg/kg at 1.5 hrs by oral glucose tolerance test (RVb= 2.5 %); assay type: functional
Mus musculus [20] = test: Antidiabetic activity in streptozotocin-induced diabetic ICR mouse assessed as change in blood glucose level at 31.2 mg/kg after 1.5 hrs by oral glucose tolerance test (RVb= 0.005 %); assay type: functional
Mus musculus [21] = test: Antihyperglycemic activity in ICR mouse assessed as change in blood glucose level at 31.2 mg/kg at 2 hrs by oral glucose tolerance test (RVb= -12 %); assay type: functional
Mus musculus [22] = test: Antidiabetic activity in streptozotocin-induced diabetic ICR mouse assessed as change in blood glucose level at 56.2 mg/kg after 1.5 hrs by oral glucose tolerance test (RVb= 0.005 %); assay type: functional
Mus musculus [23] = test: Antihyperglycemic activity in ICR mouse assessed as change in blood glucose level at 56.2 mg/kg at 2 hrs by oral glucose tolerance test (RVb= -12 %); assay type: functional
Mus musculus [24] = test: Antidiabetic activity in streptozotocin-induced diabetic ICR mouse assessed as change in blood glucose level at 10 mg/kg after 1.5 hrs by oral glucose tolerance test (RVb= 0.005 %); assay type: functional

## COc1cc(/C=C/C(=O)O)ccc1O [FERULATE]
Mus musculus [1]
  Activity: Active
Rattus norvegicus [2]
  Activity: Active
L6
  fold change (FC): 2.98
[3]
  Activity: inactive
Rattus norvegicus [4]
  Activity: Active

## C=CCc1cc(OC)c2c(c1)OCO2
[3]
  Activity: inactive

## CCC/C=C1\OC(=O)C2=C[C@H]3CC[C@]21C1C2=C(CC[C@H]13)/C(=C\CCC)OC2=O (some centres not stated)
Mus musculus [5]
  Activity: 32%
Mus musculus [6]
  Activity: 57%
Mus musculus [7]
  Activity: 41%
Mus musculus [8]
  Activity: -13%
Mus musculus [9]
  Activity: 44%
Mus musculus [10]
  Activity: -28%
Mus musculus [11]
  Activity: -5.5%
Mus musculus [12]
  Activity: 8.8%
Mus musculus [13]
  Activity: 32%
Mus musculus [14]
  Activity: 8.9%
Mus musculus [15]
  Activity: -3.8%
Mus musculus [16]
  Activity: 5.7%
Mus musculus [17]
  Activity: 3.8%
Mus musculus [18]
  Activity: 52%
Mus musculus [19]
  Activity: -35%
Mus musculus [20]
  Activity: 23%
Mus musculus [21]
  Activity: -50%
Mus musculus [22]
  Activity: 25%
Mus musculus [23]
  Activity: -27%
Mus musculus [24]
  Activity: 5.7%
[3]
  Activity: inactive

Reference: ChEMBL document CHEMBL1764997, “(Z)-3-butylidenephthalide from Ligusticum porteri , an α-glucosidase inhibitor” (J Nat Prod, 2011)
